Patent publication US20230081426A1, “COMPOUNDS AND METHODS FOR KRAS MODULATION AND INDICATIONS THEREFOR” (Plexxikon Inc., priority 2020, published 2023)

Each molecule was assayed against T1, G12D-mutant human KRAS (amino acid residues 1-188) (Homo sapiens, UniProt P01116, G12D) (assay: KRAS Binding Disruption Assay (AlphaScreen; biotinylated KRpep-2d analogue or RAF1-RBD), G12D). Conditions: KRAS G12D; geometric mean; read-out: KRAS GMean IC50 (uM) MUTATION: G12D.
T1 construct: G12D or G12C-mutant human KRAS (amino acid residues 1-188) with FLAG tag; made in house; host or cells: E. coli
T1 sequence (P01116 1-188 isoform P01116-2 G12D): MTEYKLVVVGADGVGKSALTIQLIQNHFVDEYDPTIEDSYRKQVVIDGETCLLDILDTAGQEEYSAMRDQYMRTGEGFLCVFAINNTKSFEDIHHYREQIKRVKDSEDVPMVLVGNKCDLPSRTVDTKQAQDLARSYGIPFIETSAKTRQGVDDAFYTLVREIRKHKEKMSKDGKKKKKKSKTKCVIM
How it was run: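 Mutant KRAS (5-20 nM) incubated 1 h at 25° C with test compound and 5-20 nM biotinylated KRpep-2d analogue or RAF1-RBD in 20 mM HEPES pH 7.5, 100 mM NaCl, 5 mM MgCl2, 0.01% Tween-20, 0.01% BSA.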

Question: Fc1c(-c2cccc3cccc(Br)c23)ccc2c(N3C[C@H]4CC[C@@H](C3)N4)nc(OCC34CCCN3CCC4)nc12 [P-0571, 4-((1R,5S)-3,8-diazabicyclo[3.2.1]octan-3-yl)-7-(8-bromonaphthalen-1-yl)-8-fluoro-2-((tetrahydro-1H-pyrrolizin-7a(5H)-yl)methoxy)quinazoline] was tested. Which IC50 did it give?
Answer: 0.0001 to 10 µM

Question: How did the IC50 turn out when Fc1c(-c2cncc3cccc(Cl)c23)ccc2c(N3C[C@H]4CC[C@@H](C3)N4)nc(OCC34CCCN3CCC4)nc12 [P-0572, 4-((1R,5S)-3,8-diazabicyclo[3.2.1]octan-3-yl)-7-(5-chloroisoquinolin-4-yl)-8-fluoro-2-((tetrahydro-1H-pyrrolizin-7a(5H)-yl)methoxy)quinazoline] was run?
Answer: 0.0001 to 10 µM

Question: With COCCc1cccc2[nH]cc(-c3ccc4c(N5C[C@H]6CC[C@@H](C5)N6)nc(OCC56CCCN5CCC6)nc4c3F)c12 [P-0573, 4-((1R,5S)-3,8-diazabicyclo[3.2.1]octan-3-yl)-8-fluoro-7-(4-(2-methoxyethyl)-1H-indol-3-yl)-2-((tetrahydro-1H-pyrrolizin-7a(5H)-yl)methoxy)quinazoline] as the molecule, how does the IC50 read?
Answer: 0.0001 to 10 µM

Question: How did the IC50 turn out when OCc1cccc2[nH]cc(-c3ccc4c(N5C[C@H]6CC[C@@H](C5)N6)nc(OCC56CCCN5CCC6)nc4c3F)c12 [P-0574, (3-(4-((1R,5S)-3,8-diazabicyclo[3.2.1]octan-3-yl)-8-fluoro-2-((tetrahydro-1H-pyrrolizin-7a(5H)-yl)methoxy)quinazolin-7-yl)-1H-indol-4-yl)methanol] was run?
Answer: 0.0001 to 10 µM

Question: CC(C)C(COC(=O)C(F)(F)F)COc1nc(N2C[C@H]3CC[C@@H](C2)N3)c2ccc(-c3cc(O)cc4ccccc34)c(F)c2n1 (stereo partly drawn) [P-0575, 2-(((4-((1R,5S)-3,8-diazabicyclo[3.2.1]octan-3-yl)-8-fluoro-7-(3-hydroxynaphthalen-1-yl)quinazolin-2-yl)oxy)methyl)-3-methylbutyl 2,2,2-trifluoroacetate] was tested. Which IC50 did it give?
Answer: 0.0001 to 10 µM

Question: Which IC50 does the source give for OCC1(C(F)(F)F)CCN(c2nc(N3C[C@H]4CC[C@@H](C3)N4)c3ccc(-c4cc(O)cc5ccccc45)c(F)c3n2)C1 (stereo partly drawn) [P-0576, 4-(4-((1R,5S)-3,8-diazabicyclo[3.2.1]octan-3-yl)-8-fluoro-2-(3-(hydroxymethyl)-3-(trifluoromethyl)pyrrolidin-1-yl)quinazolin-7-yl)naphthalen-2-ol] here?
Answer: 0.0001 to 10 µM

Question: For NC1(CO)CN(c2nc(N3C[C@H]4CC[C@@H](C3)N4)c3ccc(-c4cc(O)cc5ccccc45)c(F)c3n2)C1 [P-0577, 4-(2-(3-amino-3-(hydroxymethyl)azetidin-1-yl)-4-((1R,5S)-3,8-diazabicyclo[3.2.1]octan-3-yl)-8-fluoroquinazolin-7-yl)naphthalen-2-ol], which IC50 is on record?
Answer: 0.0001 to 10 µM

Question: With CCC1(N)CN(c2nc(N3C[C@H]4CC[C@@H](C3)N4)c3ccc(-c4cc(O)cc5ccccc45)c(F)c3n2)C1 [P-0578, 4-(2-(3-amino-3-ethylazetidin-1-yl)-4-((1R,5S)-3,8-diazabicyclo[3.2.1]octan-3-yl)-8-fluoroquinazolin-7-yl)naphthalen-2-ol] as the molecule, how does the IC50 read?
Answer: 0.0001 to 10 µM

Question: OCC1(CNc2nc(N3C[C@H]4CC[C@@H](C3)N4)c3ccc(-c4cc(O)cc5ccccc45)c(F)c3n2)CC(F)(F)C1 [P-0579, 4-(4-((1R,5S)-3,8-diazabicyclo[3.2.1]octan-3-yl)-2-(((3,3-difluoro-1-(hydroxymethyl)cyclobutyl)methyl)amino)-8-fluoroquinazolin-7-yl)naphthalen-2-ol] was tested. Which IC50 did it give?
Answer: 0.0001 to 10 µM

Question: How did the IC50 turn out when NCC1(COc2nc(N3C[C@H]4CC[C@@H](C3)N4)c3ccc(-c4cc(O)cc5ccccc45)c(F)c3n2)CC(F)(F)C1 [P-0580, 4-(2-((1-(aminomethyl)-3,3-difluorocyclobutyl)methoxy)-4-((1R,5S)-3,8-diazabicyclo[3.2.1]octan-3-yl)-8-fluoroquinazolin-7-yl)naphthalen-2-ol] was run?
Answer: 0.0001 to 10 µM

Question: With OCC1(CNc2nc(N3C[C@H]4CC[C@@H](C3)N4)c3ccc(-c4cc(O)cc5ccccc45)c(F)c3n2)COC1 [P-0581, 4-(4-((1R,5S)-3,8-diazabicyclo[3.2.1]octan-3-yl)-8-fluoro-2-(((3-(hydroxymethyl)oxetan-3-yl)methyl)amino)quinazolin-7-yl)naphthalen-2-ol] as the molecule, how does the IC50 read?
Answer: 0.0001 to 10 µM

Question: For OCC1(CNc2nc(N3C[C@H]4CC[C@@H](C3)N4)c3ccc(-c4cc(O)cc5ccccc45)c(F)c3n2)CC1 [P-0582, 4-(4-((1R,5S)-3,8-diazabicyclo[3.2.1]octan-3-yl)-8-fluoro-2-(((1-(hydroxymethyl)cyclopropyl)methyl)amino)quinazolin-7-yl)naphthalen-2-ol], which IC50 is on record?
Answer: 0.0001 to 10 µM

Question: With OCC1(COc2nc(N3C[C@H]4CC[C@@H](C3)N4)c3ccc(-c4cc(O)cc5ccccc45)c(F)c3n2)CC(O)C1 (stereo partly drawn) [P-0583, 4-(4-((1R,5S)-3,8-diazabicyclo[3.2.1]octan-3-yl)-8-fluoro-2-((3-hydroxy-1-(hydroxymethyl)cyclobutyl)methoxy)quinazolin-7-yl)naphthalen-2-ol] as the molecule, how does the IC50 read?
Answer: 0.0001 to 10 µM

Question: OCC(COc1nc(N2C[C@H]3CC[C@@H](C2)N3)c2ccc(-c3cc(O)cc4ccccc34)c(F)c2n1)c1ccccc1 (stereo partly drawn) [P-0584, 4-(4-((1R,5S)-3,8-diazabicyclo[3.2.1]octan-3-yl)-8-fluoro-2-(3-hydroxy-2-phenylpropoxy)quinazolin-7-yl)naphthalen-2-ol] was tested. Which IC50 did it give?
Answer: 0.0001 to 10 µM

Question: With CC(C)(C)C(CO)COc1nc(N2C[C@H]3CC[C@@H](C2)N3)c2ccc(-c3cc(O)cc4ccccc34)c(F)c2n1 (stereo partly drawn) [P-0585, 4-(4-((1R,5S)-3,8-diazabicyclo[3.2.1]octan-3-yl)-8-fluoro-2-(2-(hydroxymethyl)-3,3-dimethylbutoxy)quazolin-7-yl)naphthalen-2-ol] as the molecule, how does the IC50 read?
Answer: 0.0001 to 10 µM

Question: How did the IC50 turn out when CC(C)C(CO)COc1nc(N2C[C@H]3CC[C@@H](C2)N3)c2ccc(-c3cc(O)cc4ccccc34)c(F)c2n1 (stereo partly drawn) [P-0586, 4-(4-((1R,5S)-3,8-diazabicyclo[3.2.1]octan-3-yl)-8-fluoro-2-(2-(hydroxymethyl)-3-methylbutoxy)quinazolin-7-yl)naphthalen-2-ol] was run?
Answer: 0.0001 to 10 µM

Question: Which IC50 does the source give for OCC1(CNc2nc(N3C[C@H]4CC[C@@H](C3)N4)c3ccc(-c4cc(O)cc5ccccc45)c(F)c3n2)CCC1 [P-0587, 4-(4-((1R,5S)-3,8-diazabicyclo[3.2.1]octan-3-yl)-8-fluoro-2-(((1-(hydroxymethyl)cyclobutyl)methyl)amino)quinazolin-7-yl)naphthalen-2-ol] here?
Answer: 0.0001 to 10 µM

Question: OCC1(COc2nc(N3C[C@H]4CC[C@@H](C3)N4)c3ccc(-c4cc(O)cc5ccccc45)c(F)c3n2)CCCC1 [P-0588, 4-(4-((1R,5S)-3,8-diazabicyclo[3.2.1]octan-3-yl)-8-fluoro-2-((1-(hydroxymethyl)cyclopentyl)methoxy)quinazolin-7-yl)naphthalen-2-ol] was tested. Which IC50 did it give?
Answer: 0.0001 to 10 µM

Question: CN(C)CC(C)(C)COc1nc(N2C[C@H]3CC[C@@H](C2)N3)c2ccc(-c3cc(O)cc4ccccc34)c(F)c2n1 [P-0589, 4-(4-((1R,5S)-3,8-diazabicyclo[3.2.1]octan-3-yl)-2-(3-(dimethylamino)-2,2-dimethylpropoxy)-8-fluoroquinazolin-7-yl)naphthalen-2-ol] was tested. Which IC50 did it give?
Answer: 0.0001 to 10 µM

Question: For CC(C)(CNS(C)(=O)=O)COc1nc(N2C[C@H]3CC[C@@H](C2)N3)c2ccc(-c3cc(O)cc4ccccc34)c(F)c2n1 [P-0590, N-(3-((4-((1R,5S)-3,8-diazabicyclo[3.2.1]octan-3-yl)-8-fluoro-7-(3-hydroxynaphthalen-1-yl)quinazolin-2-yl)oxy)-2,2-dimethylpropyl)methanesulfonamide], which IC50 is on record?
Answer: 0.0001 to 10 µM

Question: How did the IC50 turn out when CC(=O)NCC(C)(C)COc1nc(N2C[C@H]3CC[C@@H](C2)N3)c2ccc(-c3cc(O)cc4ccccc34)c(F)c2n1 [P-0591, N-(3-((4-((1R,5S)-3,8-diazabicyclo[3.2.1]octan-3-yl)-8-fluoro-7-(3-hydroxynaphthalen-1-yl)quinazolin-2-yl)oxy)-2,2-dimethylpropyl)acetamide] was run?
Answer: 0.0001 to 10 µM

Question: With CC(C)(CNC(=O)OCc1ccccc1)COc1nc(N2C[C@H]3CC[C@@H](C2)N3)c2ccc(-c3cc(O)cc4ccccc34)c(F)c2n1 [P-0592, benzyl (3-((4-((1R,5S)-3,8-diazabicyclo[3.2.1]octan-3-yl)-8-fluoro-7-(3-hydroxynaphthalen-1-yl)quinazolin-2-yl)oxy)-2,2-dimethylpropyl)carbamate] as the molecule, how does the IC50 read?
Answer: 0.0001 to 10 µM

Question: For Cc1ccc2[nH]ncc2c1-c1c(F)cc2c(N3C[C@H]4CC[C@@H](C3)N4)nc(OCC34CCCN3CCC4)nc2c1F [P-0593, 4-((1R,5S)-3,8-diazabicyclo[3.2.1]octan-3-yl)-6,8-difluoro-7-(5-methyl-1H-indazol-4-yl)-2-((tetrahydro-1H-pyrrolizin-7a(5H)-yl)methoxy)quinazoline], which IC50 is on record?
Answer: 0.0001 to 10 µM

Question: With CC(=O)Nc1ccc(Cl)c(-c2c(F)cc3c(N4C[C@H]5CC[C@@H](C4)N5)nc(OCC45CCCN4CCC5)nc3c2F)c1 [P-0594, N-(3-(4-((1R,5S)-3,8-diazabicyclo[3.2.1]octan-3-yl)-6,8-difluoro-2-((tetrahydro-1H-pyrrolizin-7a(5H)-yl)methoxy)quinazolin-7-yl)-4-chlorophenyl)acetamide] as the molecule, how does the IC50 read?
Answer: 0.0001 to 10 µM

Question: With Nc1ccc(Cl)c(-c2c(F)cc3c(N4C[C@H]5CC[C@@H](C4)N5)nc(OCC45CCCN4CCC5)nc3c2F)c1 [P-0595, 3-(4-((1R,5S)-3,8-diazabicyclo[3.2.1]octan-3-yl)-6,8-difluoro-2-((tetrahydro-1H-pyrrolizin-7a(5H)-yl)methoxy)quinazolin-7-yl)-4-chloroaniline] as the molecule, how does the IC50 read?
Answer: 0.0001 to 10 µM

Question: With Cc1ccc(N)cc1-c1c(F)cc2c(N3C[C@H]4CC[C@@H](C3)N4)nc(OCC34CCCN3CCC4)nc2c1F [P-0596, 3-(4-((1R,5S)-3,8-diazabicyclo[3.2.1]octan-3-yl)-6,8-difluoro-2-((tetrahydro-1H-pyrrolizin-7a(5H)-yl)methoxy)quinazolin-7-yl)-4-methylaniline] as the molecule, how does the IC50 read?
Answer: 0.0001 to 10 µM

Question: How did the IC50 turn out when CCCc1cccc2[nH]cc(-c3ccc4c(N5C[C@H]6CC[C@@H](C5)N6)nc(OCC56CCCN5CCC6)nc4c3F)c12 [P-0598, 4-((1R,5S)-3,8-diazabicyclo[3.2.1]octan-3-yl)-8-fluoro-7-(4-propyl-1H-indol-3-yl)-2-((tetrahydro-1H-pyrrolizin-7a(5H)-yl)methoxy)quinazoline] was run?
Answer: 0.0001 to 10 µM
